From ChEMBL document CHEMBL3585267, “Bioactivity of surface tethered Osteogenic Growth Peptide motifs” (2014)
Activity calls are given as the source filed them. No cut-off for these calls is given here. Peptide text beside a SMILES is read from it.

Assays:
[1] = tested on: Mesenchymal stem cell; assay: Induction of osteogenesis of rabbit mesenchymal stem cells by alkaline phosphatase assay; assay type: functional; settings: Oryctolagus cuniculus
[2] = tested on: Mesenchymal stem cell; assay: Effect on cell proliferation of rabbit mesenchymal stem cells incubated for 7 days by MTT assay; assay type: functional; settings: Oryctolagus cuniculus
[3] = (§1) Increase in RUNX2 mRNA expression in rabbit mesenchymal stem cells incubated for 7 days by qRT-PCR method relative to untreated control; assay type: functional, Oryctolagus cuniculus, Mesenchymal stem cell
[4] = Increase in SPARC mRNA expression in rabbit mesenchymal stem cells incubated for 14 days by qRT-PCR method relative to untreated control; assay type: functional, Oryctolagus cuniculus, Mesenchymal stem cell
[5] = tested on: Mesenchymal stem cell; assay: Effect on cell proliferation of rabbit mesenchymal stem cells incubated for 3 days by MTT assay; assay type: functional; settings: Oryctolagus cuniculus
[6] = (§2) Increase in BMP2 mRNA expression in rabbit mesenchymal stem cells incubated for 14 days by qRT-PCR method relative to untreated control; assay type: functional, Oryctolagus cuniculus, Mesenchymal stem cell
[7] = (§3) Increase in RUNX2 mRNA expression in rabbit mesenchymal stem cells incubated for 14 days by qRT-PCR method relative to untreated control; assay type: functional, Oryctolagus cuniculus, Mesenchymal stem cell
[8] = (§4) Increase in BMP2 mRNA expression in rabbit mesenchymal stem cells incubated for 7 days by qRT-PCR method relative to untreated control; assay type: functional, Oryctolagus cuniculus, Mesenchymal stem cell
[9] = Reduction in cell proliferation of rabbit mesenchymal stem cells incubated for 7 days by MTT assay; assay type: functional; settings: Oryctolagus cuniculus
[10] = Reduction in cell proliferation of rabbit mesenchymal stem cells incubated for 14 days by MTT assay; assay type: functional; settings: Oryctolagus cuniculus
[11] = tested on: Mesenchymal stem cell; assay: Effect on cell morphology of rabbit mesenchymal stem cells incubated for 7 days by H and E staining method; assay type: functional; settings: Oryctolagus cuniculus
[12] = Reduction in cell proliferation of rabbit mesenchymal stem cells incubated for 5 days by MTT assay; assay type: functional; settings: Oryctolagus cuniculus
[13] = tested on: Mesenchymal stem cell; assay: Effect on cell morphology of rabbit mesenchymal stem cells incubated for 3 days by phalloidin immunofluorescence staining method; assay type: functional; settings: Oryctolagus cuniculus
[14] = tested on: Mesenchymal stem cell; assay: Increase in SPARC mRNA expression in rabbit mesenchymal stem cells incubated for 7 days by qRT-PCR method relative to untreated control; assay type: functional; settings: Oryctolagus cuniculus
[15] = tested on: Mesenchymal stem cell; assay: as §1; assay type: functional; settings: Oryctolagus cuniculus
[16] = tested on: Mesenchymal stem cell; assay: as §2; assay type: functional; settings: Oryctolagus cuniculus
[17] = tested on: Mesenchymal stem cell; assay: as §3; assay type: functional; settings: Oryctolagus cuniculus
[18] = tested on: Mesenchymal stem cell; assay: as §4; assay type: functional; settings: Oryctolagus cuniculus
[19] = tested on: Mesenchymal stem cell; assay: Increase in cell proliferation of rabbit mesenchymal stem cells incubated for 14 days by MTT assay; assay type: functional; settings: Oryctolagus cuniculus

Compound	Activity [1]	Activity [2]	Activity [5]	Activity [11]	Activity [13]	Activity [14]	other results
CC(C)C[C@H](NC(=O)[C@@H](NC(=O)[C@H](CCCNC(=N)N)NC(=O)CNC(=O)[C@H](CCC(N)=O)NC(=O)[C@H](CCCNC(=N)N)NC(=O)[C@H](CCCCN)NC(=O)[C@H](CC(C)C)NC(=O)[C@H](C)N)[C@@H](C)O)C(=O)O (H-ALKRQGRTL-OH)	inactive	inactive	–	–	–	–	–
CC(C)C[C@H](NC(=O)[C@H](C)N)C(=O)N[C@@H](CCCCN)C(=O)N[C@@H](CCCNC(=N)N)C(=O)N[C@@H](CCC(N)=O)C(=O)NCC(=O)N[C@@H](CCCNC(=N)N)C(=O)N[C@H](C(=O)N[C@@H](CC(C)C)C(=O)N[C@@H](CS)C(=O)O)[C@@H](C)O (H-ALKRQGRTLC-OH)	inactive	inactive	–	–	–	–	–
CC(C)C[C@H](NC(=O)[C@@H](NC(=O)[C@H](CCCNC(=N)N)NC(=O)CNC(=O)[C@H](CCC(N)=O)NC(=O)[C@H](CCCNC(=N)N)NC(=O)[C@H](CCCCN)NC(=O)[C@H](CC(C)C)NC(=O)[C@H](C)NC(=O)[C@@H](N)CS)[C@@H](C)O)C(=O)O (H-CALKRQGRTL-OH)	inactive	inactive	–	–	–	–	–
N[C@@H](CS)C(=O)N[C@@H](Cc1ccc(O)cc1)C(=O)NCC(=O)N[C@@H](Cc1ccccc1)C(=O)NCC(=O)NCC(=O)O (H-CYGFGG-OH)	Active	–	inactive	inactive	inactive	inactive	fold change (FC) [3]: 2.6; fold change (FC) [4]: 1.6; fold change (FC) [6]: 60; fold change (FC) [7]: 1.7; fold change (FC) [8]: 49; Activity [9]: Active; Activity [10]: Active; Activity [12]: Active
N[C@@H](Cc1ccc(O)cc1)C(=O)NCC(=O)N[C@@H](Cc1ccccc1)C(=O)NCC(=O)NCC(=O)O (H-YGFGG-OH)	inactive	inactive	inactive	inactive	inactive	inactive	Activity [15]: inactive; Activity [16]: inactive; Activity [17]: inactive; Activity [18]: inactive; Activity [19]: Active
N[C@@H](Cc1ccc(O)cc1)C(=O)NCC(=O)N[C@@H](Cc1ccccc1)C(=O)NCC(=O)NCC(=O)N[C@@H](CS)C(=O)O (H-YGFGGC-OH)	inactive	inactive	–	–	–	–	–
